Test results as given in patent US20210130401A1, “PEPTIDOMIMETIC INHIBITORS OF THE WDR5-MLL INTERACTION” (THE REGENTS OF THE UNIVERSITY OF MICHIGAN, priority 2017, published 2021).
Read-outs that look alike come from different tables or passages of the source. Starred links: 1 amine or outer side, 2 acyl side, 3 side chain; linkers in the order of their positions; H or OH if unused. Positions of bridges follow the written chain, without caps; N, C: chain ends. Non-standard residues stand in square brackets, D forms with d. Residues, ends and D or L forms follow the SMILES beside them. *: point of attachment. dαMeLys(Me) = CN(CCCC[C@@](C)(N[*:1])C(=O)[*:2])[*:3]; dαMeDab = C[C@](CCN[*:3])(N[*:1])C(=O)[*:2]; dPhg(4-F) = N[C@@H](C(=O)O)c1ccc(F)cc1; Arg(Me) = CNC(=N)NCCC[C@H](N)C(=O)O; d(αMeOrn) = C[C@@](N)(CCCN)C(=O)O; d(αMeK) = C[C@@](N)(CCCCN)C(=O)O; dPhg = N[C@@H](C(=O)O)c1ccccc1; dDab = NCC[C@@H](N)C(=O)O; Isobutyryl = CC(C)C(=O)*; Abu = CC[C@H](N)C(=O)O

Key:
WDR5 = target: T1, WDR5 (Homo sapiens, UniProt P61964); assay: fluorescence polarization (FP) based competitive binding assay to WDR5 protein
T1 construct: N-terminal His-tagged WDR5 protein (residues 24-334), named WDR5Δ23; made in house; host or cells: E. coli Rosetta 2 (DE3)
Procedure: The plates were incubated at room temperature on a shaker for 3h, and then the mP values were measured using the Tecan Infinite M-1000 plate reader (Tecan U.S., Research Triangle Park, N.C.).

MLL complex = target: T2, MLL complex (Homo sapiens, UniProt P61964); assay: AlphaLISA MLL HMT functional assay (cell-free); assay type: biochemical; conditions: read-out: Inhibition of MLL HMT Activity IC50 ± SD
T2 construct: full length human WDR5 with N-terminal 6×His tag; purchased Activmotif (Carlsbad, Calif.)
Source text: To avoid multiple wash and transfer steps, an amplified luminescent proximity homogeneous assay (AlphaLISA) was developed and optimized to evaluate the MLL HMT inhibitory activities of the Compounds of the Disclosure.
In this assay, recombinant nucleosomes are initially treated with the MLL complex for methylation in the presence of S-Adenosyl methionine (SAM) as cofactor before stopping the reaction with high salt buffer. Then, anti-H3K4Mel/2 antibody, which is covalently linked to acceptor beads, and biotinylated anti-H3 (C-terminus) antibody were added.
Anti-Histone H3 Lysine 4 (H3K4mel-2) AlphaLISA acceptor beads, AlphaScreen Streptavidin donor beads and biotinylated anti-H3 (C-terminus) antibody were obtained from PerkinElmer Life Sciences (Waltham, Mass.). 2.5 μl of compound serial dilutions in assay buffer with 4% DMSO and 5 μl of pentameric MLL complex solution were added into a white low volume 384 well microtiter plate which was incubated for 30 minutes with gentle shaking at room temperature, followed by adding 2.5 μl of SAM/Nucleosome mixture. The methylation reaction was performed in 50 mM Tris, pH 8.5 with 1 mM DTT and 0.01% Tween-20 added right before the assay. Final concentrations of MLL complex, SAM, and nucleosomes were 5 nM, 200 nM, and 3 nM, respectively. Final DMSO in the reaction mixture was 1%. The reaction was allowed to perform for 120 minutes in dark with gentle shaking at room temperature. […] 5 μL of high salt stopping solution (50 mM Tris, pH 7.4 with 1 M NaCl, 0.1% Tween-20, and 0.3% poly-L-Lysine) was added to stop the methylation reactions for 15 minutes. 5 μl of 5× acceptor beads/biotinylated anti-H3 antibody mixture in detection buffer (50 mM Tris, pH 7.4 with 0.3 M NaCl, 0.1% Tween-20, and 0.001% poly-L-Lysine) was added, followed by 1 hour incubation at room temperature to allow full interaction between antibodies and methylated nucleosomes. Add 5 μL of 5× streptavidin donor beads in detection and incubate 30 minutes.

[1] = system: MV4;11 leukemia cells carrying MLL-AF4 fusion; assay: cell viability assay (WST-8), MV4;11; assay type: cell-based; conditions: Homo sapiens, MV4-11, 96 h, read-out: Cell Growth Inhibition IC50 (μM) MV-4-11
Procedure: To assess cell viability, MOLM-13 leukemia cells carrying MLL-AF9 fusion, MV4;11 leukemia cells carrying MLL-AF4 fusion or HL-60 leukemia cells carrying no MLL fusion were seeded 1×10^4 cell/well in 96-well plates and treated with an inhibitor for 4 days at different concentrations, in culture media containing 0.2% DMSO as the final concentration. Cell viability was determined using the WST-8 cell proliferation assay kit (Dojindo Molecular Technologies) according to manufacturer's instructions. Three independent experiments in triplicates were performed.

[2] = system: MOLM-13 leukemia cells carrying MLL-AF9 fusion; assay: cell viability assay (WST-8), MOLM-13; assay type: cell-based; conditions: Homo sapiens, MOLM-13, 96 h, read-out: Cell Growth Inhibition IC50 (μM) MOLM-13
[3] = system: HL-60 leukemia cells carrying no MLL fusion; assay: cell viability assay (WST-8), HL-60; assay type: cell-based; conditions: for IC50: read-out: Cell Growth Inhibition IC50 (μM) HL-60
Procedure: Cell viability was determined using the WST-8 cell proliferation assay kit (Dojindo Molecular Technologies) according to manufacturer's instructions. Three independent experiments in triplicates were performed.

MLL2 = assay: HMT assay, SET1 family specificity; assay type: biochemical; conditions: up to 100 μM; data not shown
Procedure: (§1) The specificity of Cpd. No. 5 was tested against MLL and other SET1 family members (MLL2, MLL3, MLL4, SET1a and SET1b) using the previously published HMT assays (Karatas et al., J. Med. Chem. 53:5179-5185 (2010)). Cpd.

SET1a = SET1a (Homo sapiens, UniProt O15047); assay: HMT assay, SET1 family specificity; assay type: biochemical; conditions: up to 100 μM; data not shown
Procedure: as §1

MLL3 = MLL3 (Homo sapiens, UniProt Q8NEZ4); assay: HMT assay, SET1 family specificity; assay type: biochemical; conditions: up to 100 μM; data not shown
Procedure: as §1

SET1b = SET1b (Homo sapiens, UniProt Q9UPS6); assay: HMT assay, SET1 family specificity; assay type: biochemical; conditions: up to 100 μM; data not shown
Procedure: as §1

MLL4 = assay: HMT assay, SET1 family specificity; assay type: biochemical; conditions: up to 100 μM; data not shown
Procedure: as §1

[4] = stability in cell culture media; assay type: physicochemical; conditions: up to 7 days; data not shown
Procedure: To assess the effect of long-term treatment of compound Cpd. No. 5 on leukemia cells, MOLM-13 and MV4;11 cell lines were plated at a density of 5×10^4 cell/ml in 24-well plates (2 ml/well), and treated with the relevant concentrations. On day 4, cell viability for each treatment was measured using the WST-8 cell count kit. Then 10% of viable cells from each well were transferred to freshly prepared medium containing corresponding concentrations of compound Cpd. No. 5 and cultured for additional 3 days. On day 7, cell viability for each treatment was determined. In this experiment, 100,000 cells were seeded in each well in 24-well plates, whereas the cell growth inhibition data obtained for Cpd. No. 64 in Table 2 was obtained by seeding 10,000 cells in 96-well plates. Additionally, Cpd. No. 5 is stable in cell culture media up to 7 days (data not shown).

[5] = calculated from IC50 by published equation, read-out: Binding Affinity to WDR5 Ki ± SD
[6] = read-out: Binding Affinity to WDR5 IC50 ± SD
[7] = Homo sapiens, HL-60, 96 h, 4 days treatment

Row | Compound | Ki (WDR5; [5]) | IC50 (WDR5; [6]) | IC50 (MLL complex) | IC50 ([1]; 4 days treatment) | IC50 ([2]; 4 days treatment) | IC50 [3, 7] | IC50 (WDR5) | Ki (WDR5) | IC50 [1] | IC50 [2] | IC50 ([3]; Homo sapiens, HL-60, 96 h) | other results
1 | CC[C@@H]1NC(=O)[C@H](CCCNC(=N)N)NC(=O)[C@H](NC(=O)C(C)C)CCNC(=O)[C@@H](c2ccccc2)NC1=O [Cpd. No. 1, N-((3R,6S,9S,12R)-6-ethyl-9-(3-guanidinopropyl)-2,5,8,11-tetraoxo-3-phenyl-1,4,7,10-tetraazacyclotetradecan-12-yl)isobutyramide] (Isobutyryl-[dDab]R[Abu][dPhg]; lactam 1-C) | 0.0008 ± 0.0001 µM | 0.0062 ± 0.0005 µM | 0.0018 ± 0.0004 µM | 43.4 µM | 42.8 µM | > 100 µM | – | – | – | – | – | –
2 | CC[C@@H]1NC(=O)[C@H](CCCNC(=N)N)NC(=O)[C@](C)(NC(=O)C(C)C)CCCCCCCCNC(=O)[C@@H](c2ccccc2)NC1=O [Cpd. No. 77, N-((3R,6S,9S,12R)-6-ethyl-9-(3-guanidinopropyl)-12-methyl-2,5,8,11-tetraoxo-3-phenyl-1,4,7,10-tetraazacycloicosan-12-yl)isobutyramide] | – | – | 0.744 ± 0.079 µM | – | – | – | 0.0013 ± 0.0002 µM | < 0.001 µM | 7.5 ± 3 µM | 21.6 ± 4.8 µM | > 100 µM | –
3 | CC[C@@H]1NC(=O)[C@H](CCCNC(=N)NC)NC(=O)[C@](C)(NC(=O)C(C)C)CCCCNC(=O)[C@@H](c2ccccc2)NC1=O [Cpd. No. 68, N-((3R,6S,9S,12R)-6-ethyl-12-methyl-9-(3-(3-methylguanidino)propyl)-2,5,8,11-tetraoxo-3-phenyl-1,4,7,10-tetraazacyclohexadecan-12-yl)isobutyramide] (Isobutyryl-[d(αMeK)][Arg(Me)][Abu][dPhg]; lactam 1-C) | – | – | – | – | – | – | 0.0011 ± 0.0003 µM | < 0.001 µM | 4.3 ± 1.5 µM | 3.6 ± 0.8 µM | > 100 µM | –
4 | CC[C@@H]1NC(=O)[C@H](CCCNC(=N)N)NC(=O)[C@](C)(NC(=O)C(C)C)CCCNC(=O)[C@@H](c2ccccc2)NC1=O [Cpd. No. 74, N-((3R,6S,9S,12R)-6-ethyl-9-(3-guanidinopropyl)-12-methyl-2,5,8,11-tetraoxo-3-phenyl-1,4,7,10-tetraazacyclopentadecan-12-yl)isobutyramide] (Isobutyryl-[d(αMeOrn)]R[Abu][dPhg]; lactam 1-C) | < 0.001 µM | 0.00097 ± 0.00013 µM | – | 1.29 µM | 1.28 ± 0.01 µM | 46.8 µM | – | – | – | – | – | –
5 | CC[C@@H]1NC(=O)[C@H](CCCNC(=N)N)NC(=O)[C@](C)(NC(=O)C(C)C)CCNC(=O)[C@@H](c2ccccc2)NC1=O [Cpd. No. 4, N-((3R,6S,9S,12R)-6-ethyl-9-(3-guanidinopropyl)-12-methyl-2,5,8,11-tetraoxo-3-phenyl-1,4,7,10-tetraazacyclotetradecan-12-yl)isobutyramide] (Isobutyryl-[dαMeDab]R[Abu][dPhg]; lactam 1-C) | < 0.001 µM | 0.00108 ± 0.00012 µM | – | 0.46 ± 0.02 µM | 0.28 ± 0.02 µM | 17.4 µM | – | – | – | – | – | –
6 | CC[C@@H]1NC(=O)[C@H](CCCNC(=N)N)NC(=O)[C@](C)(NC(=O)C(C)C)CCCCCCNC(=O)[C@@H](c2ccccc2)NC1=O [Cpd. No. 76, N-((3R,6S,9S,12R)-6-ethyl-9-(3-guanidinopropyl)-12-methyl-2,5,8,11-tetraoxo-3-phenyl-1,4,7,10-tetraazacyclooctadecan-12-yl)isobutyramide] | – | – | 0.216 ± 0.088 µM | – | – | – | 0.001 ± 0.0002 µM | < 0.001 µM | 3.2 ± 0.4 µM | 5.6 ± 0.7 µM | 29.7 ± 11.5 µM | –
7 | CC[C@@H]1NC(=O)[C@H](CCCNC(=N)NC)NC(=O)[C@](C)(NC(=O)C(C)C)CCNC(=O)[C@@H](c2ccccc2)NC1=O [Cpd. No. 5, N-((3R,6S,9S,12R)-6-ethyl-12-methyl-9-(3-(3-methylguanidino)propyl)-2,5,8,11-tetraoxo-3-phenyl-1,4,7,10-tetraazacyclotetradecan-12-yl)isobutyramide] (Isobutyryl-[dαMeDab][Arg(Me)][Abu][dPhg]; lactam 1-C) | < 0.001 µM | 0.0009 ± 0.0002 µM | – | 0.25 µM | 0.21 µM | 8.6 µM | – | – | – | – | – | IC50 (WDR5; Table 3A, read-out: Binding Affinity to WDR5 IC50): 0.00213 µM; Ki (WDR5; Table 3A, read-out: Binding Affinity to WDR5 Ki): < 0.001 µM; inhibition of the HMT activity of MLL2 (MLL2): no or a minimal effect; inhibition of the HMT activity of SET1a (SET1a): no or a minimal effect; inhibition of the HMT activity of MLL3 (MLL3): no or a minimal effect; inhibition of the HMT activity of SET1b (SET1b): no or a minimal effect; inhibition of the HMT activity of MLL4 (MLL4): no or a minimal effect; stability in cell culture media [4]: stable; IC50 ([3]; 4 days treatment): 8.56 ± 1.14 µM; selectivity for the MV4;11 and MOLM-13 cell lines harboring MLL translocations over the HL-60 cell line ([3]; cell growth inhibition IC50 ratio): > 30 fold
8 | CC[C@@H]1NC(=O)[C@H](CCCNC(=N)N)NC(=O)[C@](C)(NC(=O)C(C)C)CCCCN(C)C(=O)[C@@H](c2ccc(F)cc2)NC1=O [Cpd. No. 66, N-((3R,6S,9S,12R)-6-ethyl-3-(4-fluorophenyl)-9-(3-guanidinopropyl)-1,12-dimethyl-2,5,8,11-tetraoxo-1,4,7,10-tetraazacyclohexadecan-12-yl)isobutyramide] (Isobutyryl-[dαMeLys(Me)]R[Abu][dPhg(4-F)]; lactam 1-C) | – | – | – | – | – | – | 0.0016 ± 0.001 µM | < 0.001 µM | 5.2 ± 1.1 µM | 16.2 ± 6.1 µM | 60 ± 19.7 µM | –
9 | CC[C@@H]1NC(=O)[C@H](CCCNC(=N)N)NC(=O)[C@](C)(NC(=O)C(C)C)CCCCCNC(=O)[C@@H](c2ccccc2)NC1=O [Cpd. No. 75, N-((3R,6S,9S,12R)-6-ethyl-9-(3-guanidinopropyl)-12-methyl-2,5,8,11-tetraoxo-3-phenyl-1,4,7,10-tetraazacycloheptadecan-12-yl)isobutyramide] | < 0.001 µM | 0.0026 ± 0.0002 µM | – | 15.1 ± 11.8 µM | 37.6 ± 12.1 µM | > 100 µM | – | – | – | – | – | –
